Drawing on patent US8063099B2, “Trans-3-aza-bicyclo[3.1.0]hexane derivatives” (Actelion Pharmaceuticals Ltd., priority 2007, dated 2011), this text covers IC50 for 10 molecules.

Assay [1] concerns the target T1, human orexin-1 receptor (Homo sapiens, UniProt O43613).
T1 construct: expressed in transfected cells; host or cells: Chinese hamster ovary (CHO) cells, G418 selection
T1 sequence (O43613 1-425): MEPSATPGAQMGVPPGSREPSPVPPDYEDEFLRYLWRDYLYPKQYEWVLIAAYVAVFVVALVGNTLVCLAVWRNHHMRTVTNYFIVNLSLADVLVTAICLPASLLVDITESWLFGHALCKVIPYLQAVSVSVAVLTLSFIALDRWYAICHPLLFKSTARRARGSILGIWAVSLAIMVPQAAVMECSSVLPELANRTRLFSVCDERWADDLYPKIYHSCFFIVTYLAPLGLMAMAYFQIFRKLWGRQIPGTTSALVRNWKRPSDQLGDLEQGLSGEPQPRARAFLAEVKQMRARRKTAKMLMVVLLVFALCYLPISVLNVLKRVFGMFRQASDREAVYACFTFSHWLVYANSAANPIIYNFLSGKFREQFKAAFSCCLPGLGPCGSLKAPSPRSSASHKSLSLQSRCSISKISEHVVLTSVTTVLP
As to the kind of experiment: Intracellular calcium measurements (FLIPR), orexin receptor antagonistic activity. As to conditions: CHO cells expressing human orexin-1 receptor, 3 nM orexin-A, read-out: OX1 IC50. Format: cell-based. The procedure:
(§1) The orexin receptor antagonistic activity of the compounds of formula (I) is determined in accordance with one of the following experimental methods.
(§2) Intracellular Calcium Measurements:
(§3) Chinese hamster ovary (CHO) cells expressing the human orexin-1 receptor and the human orexin-2 receptor, respectively, are grown in culture medium (Ham F-12 with L-Glutamine) containing 300 μg/ml G418, 100 U/ml penicillin, 100 μg/ml streptomycin and 10% heat inactivated fetal calf serum (FCS). The cells are seeded at 20'000 cells/well into 384-well black clear bottom sterile plates (Greiner). The seeded plates are incubated overnight at 37° C. in 5% CO2.
(§4) Human orexin-A as an agonist is prepared as 1 mM stock solution in MeOH:water (1:1), diluted in HBSS containing 0.1% bovine serum albumin (BSA), NaHCO3:0.375 g/l and 20 mM HEPES for use in the assay at a final concentration of 3 nM.
(§5) Antagonists are prepared as 10 mM stock solution in DMSO, then diluted in 384-well plates, first in DMSO, then in HBSS containing 0.1% bovine serum albumin (BSA), NaHCO3: 0.375 g/l and 20 mM HEPES.
(§6) On the day of the assay, 50 μl of staining buffer (HBSS containing 1% FCS, 20 mM HEPES, NaHCO3: 0.375 g/l, 5 mM probenecid (Sigma) and 3 μM of the fluorescent calcium indicator fluo-4 AM (1 mM stock solution in DMSO, containing 10% pluronic) is added to each well.
(§7) The 384-well cell-plates are incubated for 50 min at 37° C. in 5% CO2 followed by equilibration at RT for 30-120 min before measurement.
(§8) Within the Fluorescent Imaging Plate Reader (FLIPR2 or FLIPR Tetra, Molecular Devices), antagonists are added to the plate in a volume of 10 μl/well, incubated for 10 min and finally 10 μl/well of agonist is added. Fluorescence is measured for each well at 1 second intervals, and the height of each fluorescence peak is compared to the height of the fluorescence peak induced by 3 nM orexin-A with vehicle in place of antagonist. For each antagonist, the IC50 value (the concentration of compound needed to inhibit 50% of the agonistic response) is determined. With the FLIPR Tetra, non-optimized and optimized conditions were used. Optimized conditions were achieved by adjustment of pipetting speed and cell splitting regime. The calculated IC50 values of the compounds may fluctuate depending on the daily cellular assay performance. Fluctuations of this kind are known to those skilled in the art.

For assay [2], the target named is T2, human orexin-2 receptor (Homo sapiens, UniProt O43614).
T2 construct: expressed in transfected cells; host or cells: Chinese hamster ovary (CHO) cells, G418 selection
T2 sequence (O43614 1-444): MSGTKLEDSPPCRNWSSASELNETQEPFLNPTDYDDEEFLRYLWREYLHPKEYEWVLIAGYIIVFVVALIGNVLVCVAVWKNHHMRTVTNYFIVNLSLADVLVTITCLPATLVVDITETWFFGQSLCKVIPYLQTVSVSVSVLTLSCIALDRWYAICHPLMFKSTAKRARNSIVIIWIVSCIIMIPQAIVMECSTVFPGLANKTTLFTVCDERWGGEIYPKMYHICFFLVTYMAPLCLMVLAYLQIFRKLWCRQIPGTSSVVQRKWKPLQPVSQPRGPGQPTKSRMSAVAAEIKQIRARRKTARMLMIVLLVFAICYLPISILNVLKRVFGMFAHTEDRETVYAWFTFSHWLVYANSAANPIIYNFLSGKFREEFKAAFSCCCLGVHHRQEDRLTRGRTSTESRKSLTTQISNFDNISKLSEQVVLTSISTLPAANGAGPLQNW
The description is as above. The assay is classed as cell-based. As to conditions: CHO cells expressing human orexin-2 receptor, 3 nM orexin-A, read-out: OX2 IC50. The procedure:
as §1, §2, §3, §4, §5, §6, §7, §8

[3] abbreviates: FLIPR Tetra, non-optimized conditions.
Where [4] appears, read: FLIPR Tetra, optimized conditions.

Like-named read-outs stand apart in the source and are kept apart here.

Usually IC50 stands for the concentration needed to halve the response being measured. Take `Cc1cccc(-c2sc(C)nc2C(=O)N2C[C@@H]3C[C@@H]3[C@H]2CNC(=O)c2cccc3c2N(C)CCO3)c1` [Example 177, 4-Methyl-3,4-dihydro-2H-benzo[1,4]oxazine-5-carboxylic Acid[(1S,2S,5R)-3-(2-methyl-5-m-tolyl-thiazole-4-carbonyl)-3-aza-bicyclo[3.1.0]hex-2-ylmethyl]-amide]: the IC50 in assay [1] (FLIPR2) is 691 nM; in assay [2] (FLIPR2), 88 nM.

With `Cn1cc(C(=O)NC[C@@H]2[C@H]3C[C@H]3CN2C(=O)c2nc(N)sc2-c2cccc(F)c2)c2ccccc21` [Example 115, 1-Methyl-1H-indole-3-carboxylic Acid{(1S,2S,5R)-3-[2-amino-5-(3-fluoro-phenyl)-thiazole-4-carbonyl]-3-aza-bicyclo[3.1.0]hex-2-ylmethyl}-amide], the IC50 in assay [1] (FLIPR2) turned out to be 178 nM; in assay [2] (FLIPR2) it was 48 nM.

Turning to `Cc1cccc(-c2sc(C)nc2C(=O)N2C[C@@H]3C[C@@H]3[C@H]2CNc2ncc(Br)cn2)c1` [Example 244, {(1S,2S,5R)-2-[(5-Bromo-pyrimidin-2-ylamino)-methyl]-3-aza-bicyclo[3.1.0]hex-3-yl}-(2-methyl-5-m-tolyl-thiazol-4-yl)-methanone], the IC50 in assay [1] (setting [3]) came out at 51 nM; in assay [2] (setting [3]), 639 nM.

On to `Cc1cccc(-c2sccc2C(=O)N2C[C@@H]3C[C@@H]3[C@H]2CNC(=O)c2cccc3oc(C)nc23)c1` [Example 297, 2-Methyl-benzoxazole-4-carboxylic acid [(1S,2S,5R)-3-(2-m-tolyl-thiophene-3-carbonyl)-3-aza-bicyclo[3.1.0]hex-2-ylmethyl]-amide], for which the IC50 is 83 nM in assay [1] (setting [4]) and 16 nM in assay [2] (setting [4]).

For the molecule `Cc1cccc(-c2sc(C)nc2C(=O)N2C[C@@H]3C[C@@H]3[C@H]2CNC(=O)c2cccc3sc(Cl)nc23)c1` [Example 299, 2-Chloro-benzothiazole-4-carboxylic Acid[(1S,2S,5R)-3-(2-methyl-5-m-tolyl-thiazole-4-carbonyl)-3-aza-bicyclo[3.1.0]hex-2-ylmethyl]-amide], the IC50 is 28 nM in assay [1] (setting [4]) and 14 nM in assay [2] (setting [4]).

Consider `Cc1c(C(=O)NC[C@@H]2[C@H]3C[C@H]3CN2C(=O)c2nc(N)sc2-c2cccc(F)c2)sc2nccn12` [Example 124, 3-Methyl-imidazo[2,1-b]thiazole-2-carboxylic Acid{(1S,2S,5R)-3-[2-amino-5-(3-fluoro-phenyl)-thiazole-4-carbonyl]-3-aza-bicyclo[3.1.0]hex-2-ylmethyl}-amide], for which the IC50 in assay [1] (FLIPR2) worked out at 7030 nM; in assay [2] (FLIPR2), 12 nM.

Consider `CN(C)c1nc(C(=O)N2C[C@@H]3C[C@@H]3[C@H]2CNC(=O)c2scc3c2OCCO3)c(-c2cccc(F)c2)s1` [Example 220, 2,3-Dihydro-thieno[3,4-b][1,4]dioxine-5-carboxylic acid {(1S,2S,5R)-3-[2-dimethylamino-5-(3-fluoro-phenyl)-thiazole-4-carbonyl]-3-aza-bicyclo[3.1.0]hex-2-ylmethyl}-amide], for which the figures for the IC50 in assay [1] (setting [3]) and in assay [2] (setting [3]) were 115 nM and 48 nM, respectively.

In the case of `Nc1nc(C(=O)N2C[C@@H]3C[C@@H]3[C@H]2CNC(=O)c2nccc3ccccc23)c(-c2cccc(F)c2)s1` [Example 112, Isoquinoline-1-carboxylic Acid{(1S,2S,5R)-3-[2-amino-5-(3-fluoro-phenyl)-thiazole-4-carbonyl]-3-aza-bicyclo[3.1.0]hex-2-ylmethyl}-amide], the IC50 in assay [1] (FLIPR2) came out at 115 nM; in assay [2] (FLIPR2) it was 12 nM.

Consider `Cc1cccc(-c2sc(C)nc2C(=O)N2C[C@@H]3C[C@@H]3[C@H]2CNC(=O)c2n[nH]c3ccccc23)c1` [Example 58, 1H-Indazole-3-carboxylic Acid[(1S,2S,5R)-3-(2-methyl-5-m-tolyl-thiazole-4-carbonyl)-3-aza-bicyclo[3.1.0]hex-2-ylmethyl]-amide], for which the values for the half-maximal inhibitory concentration (IC50) in assay [1] (FLIPR2) and in assay [2] (FLIPR2) were 37 nM and 57 nM, respectively.

In the case of `Cc1ccc(-c2ccsc2C(=O)N2C[C@@H]3C[C@@H]3[C@H]2CNC(=O)c2c(C)nc3sccn23)cc1` [Example 222, 6-Methyl-imidazo[2,1-b]thiazole-5-carboxylic acid [(1S,2S,5R)-3-(3-p-tolyl-thiophene-2-carbonyl)-3-aza-bicyclo[3.1.0]hex-2-ylmethyl]-amide], the IC50 in assay [1] (setting [4]) was 96 nM; in assay [2] (setting [4]), 79 nM.
